{"source": "patent US20050234026A1", "about": "“Method and agent for inducing apoptosis/cell death in leukemia cells” (priority 2003, published 2005)", "key": {"[1]": {"test_system": "HL-60 myeloblastic leukemia cells", "assay": "Growth of HL-60 myeloblastic leukemia cells under NO-delivering drugs", "assay_type": "cell-based, human", "settings": "NO delivered from the drug", "from_the_text": "While studying NO and macrophages progressed in the late 1980s, we hypothesized that NO produced in the BM would be a modulator of normal and leukemic hematopoiesis. […] The differentiated cells were vacuolated, and had increased expression of nonspecific esterase, CD11 b, and CD14."}, "[2]": {"test_system": "normal human BM cells", "assay": "Colony formation of normal human bone marrow cells / CD34+ cells in methylcellulose", "assay_type": "cell-based", "settings": "normal human BM cells in methylcellulose with erythropoietin and colony stimulating factors", "procedure": "The effects of NO on the growth and differentiation of normal human BM cells were analyzed (Reference 85). We felt that normal hematopoietic cells, like malignant hematopoietic cells, would be affected by NO. […] In retrospect, we think that the increase in CFU-GM by NO from SNP may be due to alterations in apoptosis secondary to changes in bcl-2 or caspases. None of the noted inhibitions were related to cGMP."}, "[3]": {"settings": "cited from earlier work"}, "[4]": {"test_system": "freshly-isolated CLL cells", "assay": "Apoptosis and death of freshly-isolated CLL cells after exogenous NO donors and drugs", "assay_type": "cell-based, human", "settings": "for ID50, CLL cell apoptosis and death: acute addition", "from_the_text": "We next wanted to examine CLL cells. These malignant cells differ in many ways from ANLL and normal hematopoietic. In addition to their different lineage, they are unique in that they have a very low growth […], exist primary in the G0 phase of the cell cycle, and have defective apoptosis. […] NO also synergized with the ara-guanosine prodrug 2-amino-9-[…]-D-6-methoxy araguanine (also called 506U78)."}, "[5]": {"target": "recombinant purified human NOS1 (Homo sapiens, UniProt P29475)", "sequence (P29475 whole entry)": "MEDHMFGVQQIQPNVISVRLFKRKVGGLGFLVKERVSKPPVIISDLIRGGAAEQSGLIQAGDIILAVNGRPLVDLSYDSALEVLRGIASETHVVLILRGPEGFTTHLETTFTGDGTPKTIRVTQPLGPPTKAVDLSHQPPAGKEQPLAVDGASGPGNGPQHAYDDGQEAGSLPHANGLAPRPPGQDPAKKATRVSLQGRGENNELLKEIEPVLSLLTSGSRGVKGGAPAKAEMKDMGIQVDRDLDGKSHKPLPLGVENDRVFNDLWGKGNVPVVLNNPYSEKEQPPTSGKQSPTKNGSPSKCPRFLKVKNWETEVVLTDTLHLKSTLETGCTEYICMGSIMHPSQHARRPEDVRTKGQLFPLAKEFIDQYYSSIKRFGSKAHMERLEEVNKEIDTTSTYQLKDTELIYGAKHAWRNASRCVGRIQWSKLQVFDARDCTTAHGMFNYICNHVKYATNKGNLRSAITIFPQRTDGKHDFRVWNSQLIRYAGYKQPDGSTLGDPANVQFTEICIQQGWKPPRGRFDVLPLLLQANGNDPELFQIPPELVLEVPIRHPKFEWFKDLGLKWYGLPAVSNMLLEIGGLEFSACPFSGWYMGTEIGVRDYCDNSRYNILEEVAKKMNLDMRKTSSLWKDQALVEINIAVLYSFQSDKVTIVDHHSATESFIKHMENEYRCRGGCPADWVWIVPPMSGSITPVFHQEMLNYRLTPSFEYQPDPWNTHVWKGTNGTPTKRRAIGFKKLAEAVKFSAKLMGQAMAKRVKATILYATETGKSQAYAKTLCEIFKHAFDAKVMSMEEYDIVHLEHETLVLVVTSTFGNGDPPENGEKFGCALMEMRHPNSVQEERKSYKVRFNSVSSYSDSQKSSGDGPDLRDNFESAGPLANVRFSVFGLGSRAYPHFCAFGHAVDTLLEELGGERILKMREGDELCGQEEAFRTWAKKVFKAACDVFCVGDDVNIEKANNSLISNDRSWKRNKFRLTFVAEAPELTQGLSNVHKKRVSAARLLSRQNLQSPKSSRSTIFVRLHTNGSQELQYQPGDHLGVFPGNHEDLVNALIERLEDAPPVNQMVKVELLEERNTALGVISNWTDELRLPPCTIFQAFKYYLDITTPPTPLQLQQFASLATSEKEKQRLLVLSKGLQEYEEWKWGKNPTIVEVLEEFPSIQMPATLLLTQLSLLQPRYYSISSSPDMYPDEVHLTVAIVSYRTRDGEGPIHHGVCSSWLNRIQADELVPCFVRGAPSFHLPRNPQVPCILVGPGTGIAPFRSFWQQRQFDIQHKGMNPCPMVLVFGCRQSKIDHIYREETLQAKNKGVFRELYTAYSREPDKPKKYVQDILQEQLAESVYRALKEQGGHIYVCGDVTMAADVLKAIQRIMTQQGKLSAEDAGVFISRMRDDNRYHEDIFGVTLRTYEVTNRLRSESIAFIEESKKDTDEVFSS", "assay": "Kd for enzyme inhibition, pure human NOS1", "assay_type": "biochemical"}, "[6]": {"test_system": "CLL cells", "assay": "Cytotoxicity of NOS inhibitors and NO quenchers/scavengers for freshly-isolated CLL cells in vitro", "assay_type": "cell-based, human", "settings": "for ED50 for CLL (mean ± SEM): CLL cytotoxicity, freshly-isolated patient cells in vitro; for EC50: read-out: EC50 (average concentration of compound that induced 50% CLL cell death), CLL cell death in vitro, ± SEM; for ED50 for CLL: Table 2, CLL cytotoxicity"}, "[7]": {"test_system": "HL-60 and U937 cells", "assay": "Growth inhibition of acute nonlymphocytic leukemia cell lines by NO donors", "assay_type": "cell-based, human", "from_the_text": "To more closely examine the mechanism of toxicity for myeloid leukemia cells, we did work to determine whether the rate of NO delivery affected its growth inhibition of acute nonlymphocytic leukemia cells. We also wanted to determine whether the NO inhibition of cell growth is associated induction of apoptosis. We treated HL-60 and U937 cells with three compounds that generate the same amount of NO but different rates. […] Furthermore, NO-induced growth inhibition was associated with apoptosis in a rate and concentration-dependent fashion (Reference 39)."}, "[8]": {"settings": "normals and trials for septic shock and migraine; cited from earlier work"}, "[9]": {"target": "pure human enzyme NOS3 (Homo sapiens, UniProt P29474)", "sequence (P29474 whole entry)": "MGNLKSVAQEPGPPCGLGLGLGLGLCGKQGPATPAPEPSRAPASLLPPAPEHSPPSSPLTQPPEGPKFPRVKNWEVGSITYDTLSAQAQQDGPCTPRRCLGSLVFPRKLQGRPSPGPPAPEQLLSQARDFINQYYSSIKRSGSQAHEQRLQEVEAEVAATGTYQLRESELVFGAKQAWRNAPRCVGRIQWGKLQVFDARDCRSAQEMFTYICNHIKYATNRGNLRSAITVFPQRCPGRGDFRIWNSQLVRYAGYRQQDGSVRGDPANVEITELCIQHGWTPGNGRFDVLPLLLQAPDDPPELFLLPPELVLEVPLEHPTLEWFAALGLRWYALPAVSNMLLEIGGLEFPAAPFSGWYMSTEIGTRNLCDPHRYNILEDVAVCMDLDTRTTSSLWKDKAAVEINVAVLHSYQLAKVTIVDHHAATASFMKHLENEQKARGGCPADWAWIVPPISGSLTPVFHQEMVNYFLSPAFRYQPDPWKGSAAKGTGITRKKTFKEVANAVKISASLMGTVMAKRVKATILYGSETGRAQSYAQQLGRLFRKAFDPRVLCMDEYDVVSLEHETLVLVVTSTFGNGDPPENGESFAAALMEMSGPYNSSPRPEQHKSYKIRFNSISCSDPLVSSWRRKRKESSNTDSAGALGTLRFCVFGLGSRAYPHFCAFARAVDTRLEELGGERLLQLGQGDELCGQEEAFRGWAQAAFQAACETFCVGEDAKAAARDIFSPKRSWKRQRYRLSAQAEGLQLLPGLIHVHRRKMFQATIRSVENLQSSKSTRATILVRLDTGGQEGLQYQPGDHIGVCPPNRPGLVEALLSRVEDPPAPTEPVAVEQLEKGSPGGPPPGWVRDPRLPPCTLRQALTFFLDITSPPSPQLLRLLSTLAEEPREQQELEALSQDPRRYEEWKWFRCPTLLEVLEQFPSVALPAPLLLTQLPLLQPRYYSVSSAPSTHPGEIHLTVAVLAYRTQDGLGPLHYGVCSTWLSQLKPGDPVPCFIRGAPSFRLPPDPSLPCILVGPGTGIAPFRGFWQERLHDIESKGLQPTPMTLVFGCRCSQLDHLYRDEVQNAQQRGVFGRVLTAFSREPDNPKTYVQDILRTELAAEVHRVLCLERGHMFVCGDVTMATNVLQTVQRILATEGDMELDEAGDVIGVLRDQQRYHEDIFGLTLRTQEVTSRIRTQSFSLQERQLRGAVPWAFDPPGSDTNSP", "assay": "Kd for enzyme inhibition, pure human NOS3", "assay_type": "biochemical"}}, "note": "Read-outs that look alike come from different tables or passages of the source."}
{"molecule": "S-nitrosoacetylpenicillamine [SNAP]", "values": [{"measurement": "Growth of HL-60 cells", "setting": "[1]", "result": "potently inhibited"}, {"measurement": "Development of marrow colonies", "setting": "[2]", "result": "inhibited"}]}
{"molecule": "CCCN(CCCN)/[N+]([O-])=N/O", "note": "[PAPA-NO]", "values": [{"measurement": "half-life of NO delivery", "setting": "[3]", "result": 30, "unit": "min"}, {"measurement": "ID50, CLL cell apoptosis and death", "setting": "[4]; freshly-isolated CLL cells", "result": 850, "unit": "µM"}]}
{"molecule": "NCCNCCN", "note": "[DETA]", "values": [{"measurement": "Effect on CLL cells (control for NO dependence)", "setting": "[4]; freshly-isolated CLL cells", "result": "had no effects"}]}
{"molecule": "C=CCC(=N)NCCC[C@H](N)C(=O)O", "note": "[Vinyl-L-NIO, N^5-(1-imino-3-butenyl)-L-ornithine]", "values": [{"measurement": "Kd", "setting": "[5]", "result": 0.1, "unit": "µM"}, {"measurement": "ED50 for CLL (mean ± SEM)", "setting": "[6]", "result": "747 ± 126", "unit": "µM"}, {"measurement": "EC50", "setting": "[6]; Homo sapiens", "result": "747 ± 126", "unit": "µM"}, {"measurement": "ED50 for CLL", "setting": "[6]", "result": 747, "unit": "µM"}]}
{"molecule": "NCCN(CCN)/[N+]([O-])=N/O", "note": "[DETA-NO]", "values": [{"measurement": "Inhibition of leukemia cell and colony growth (rank)", "setting": "[7]", "result": "most potent inhibitor"}, {"measurement": "half-life of NO delivery", "setting": "[3]", "result": 1200, "unit": "min"}, {"measurement": "Interaction with fludarabine in killing CLL cells", "setting": "[4]; combination with fludarabine", "result": "acted synergistically"}, {"measurement": "ID50, CLL cell apoptosis and death", "setting": "[4]; freshly-isolated CLL cells", "result": 188, "unit": "µM"}, {"measurement": "Interaction with other agents in killing CLL cells", "setting": "[4]; with 5-fluorouracil, gemcitabine, doxorubicin, chlorambucil or SN-38", "result": "did not enhance the activity"}]}
{"molecule": "CNCCCCCCN(C)/[N+]([O-])=N/O", "note": "[MAMA-NO]", "values": [{"measurement": "half-life of NO delivery", "setting": "[3]", "result": 2, "unit": "min"}, {"measurement": "ID50, CLL cell apoptosis and death", "setting": "[4]; freshly-isolated CLL cells", "result": 1658, "unit": "µM"}]}
{"molecule": "C/C1=C2/[N-][C@H]([C@H](CC(N)=O)[C@@]2(C)CCC(=O)NC[C@@H](C)OP(=O)([O-])O[C@H]2[C@@H](O)[C@@H](n3cnc4cc(C)c(C)cc43)O[C@@H]2CO)[C@]2(C)N=C(/C(C)=C3N=C(/C=C4N=C1[C@@H](CCC(N)=O)C\\4(C)C)[C@@H](CCC(N)=O)[C@]\\3(C)CC(N)=O)[C@@H](CCC(N)=O)[C@]2(C)CC(N)=O.[Co+3].[OH-]", "note": "[Hydroxocobalamin]", "values": [{"measurement": "ED50 for CLL (mean ± SEM)", "setting": "[6]", "result": "148 ± 46", "unit": "µM"}, {"measurement": "EC50", "setting": "[6]", "result": "148 ± 46", "unit": "µM"}]}
{"molecule": "Cc1ccnc(N)c1", "note": "[2-amino-4-methyl pyridine]", "values": [{"measurement": "ED50 for CLL", "setting": "[6]", "result": ">2000", "unit": "µM"}]}
{"molecule": "O=[N+]([O-])c1cccc2cn[nH]c12", "note": "[7-NI, 7-Nitroindazole]", "values": [{"measurement": "ED50 for CLL (mean ± SEM)", "setting": "[6]", "result": "131 ± 23", "unit": "µM"}, {"measurement": "EC50", "setting": "[6]; Homo sapiens", "result": "131 ± 23", "unit": "µM"}]}
{"molecule": "CC1(C)N([O])C(c2ccc(C(=O)O)cc2)=[N+]([O-])C1(C)C", "note": "[Carboxy-PTIO, 2-(4-Carboxyphenyl)-4,4,5,5-tetramethylimidazoline-1-oxyl-3-oxide]", "values": [{"measurement": "ED50 for CLL (mean ± SEM)", "setting": "[6]", "result": "227 ± 31", "unit": "µM"}, {"measurement": "EC50", "setting": "[6]", "result": "227 ± 31", "unit": "µM"}]}
{"molecule": "[NH-]c1c[n+](N2CCOCC2)no1", "note": "[SIN-1]", "values": [{"measurement": "Growth of HL-60 cells", "setting": "[1]", "result": "potently inhibited"}, {"measurement": "Development of marrow colonies", "setting": "[2]", "result": "inhibited"}]}
{"molecule": "Nc1nc(F)nc2c1ncn2[C@@H]1O[C@H](CO)[C@@H](O)[C@@H]1O", "note": "[fludarabine]", "values": [{"measurement": "ID50, CLL cell apoptosis and death", "setting": "[4]; freshly-isolated CLL cells", "result": 2, "unit": "µM"}]}
{"molecule": "CNC(=N)NCCC[C@H](N)C(=O)O", "note": "[L-N^G-monomethylarginine]", "values": [{"measurement": "ED50 for CLL", "setting": "[6]", "result": ">2000", "unit": "µM"}, {"measurement": "Effects on cardiovascular, liver, or hematopoietic function", "setting": "[8]", "result": "no major effects"}]}
{"molecule": "Cl.Cl.N=C(Nc1ccc(CCNCc2cccc(Cl)c2)cc1)c1cccs1", "note": "[ARL-17477, N-[4-(2-{[(3-chlorophenyl)methyl]amino}ethyl)phenyl]-2-thiophenecarboximide dihydrochloride]", "values": [{"measurement": "ED50 for CLL (mean ± SEM)", "setting": "[6]", "result": "11 ± 2", "unit": "µM"}, {"measurement": "ED50 for CLL", "setting": "[6]", "result": 11, "unit": "µM"}, {"measurement": "EC50", "setting": "[6]", "result": "11 ± 2", "unit": "µM"}, {"measurement": "Kd", "setting": "[9]", "result": 1, "unit": "µM"}]}
{"molecule": "NC(=N[N+](=O)[O-])NCCCC(N)C(=O)O", "note": "[L-N^G-nitroarginine]", "values": [{"measurement": "ED50 for CLL", "setting": "[6]", "result": ">2000", "unit": "µM"}]}
{"molecule": "FC(F)(F)c1ccccc1-n1ccnc1", "note": "[TRIM, 1-(2-Trifluoromethylphenyl)imidazole]", "values": [{"measurement": "ED50 for CLL (mean ± SEM)", "setting": "[6]", "result": "445 ± 46", "unit": "µM"}, {"measurement": "EC50", "setting": "[6]; Homo sapiens", "result": "445 ± 46", "unit": "µM"}]}
